According to patent US9206198B2, “Inhibitors of the renal outer medullary potassium channel” (Merck Sharp & Dohme Corp., priority 2012, dated 2015):
pIC50: −log10 of the molar value.

Tests used:
hROMK (hKir1.1) = hROMK (hKir1.1) (Homo sapiens (Human), UniProt P48048); experiment: Thallium Flux Assay (ROMK channel functional thallium flux assay, FLIPR-Tetra); type: cell-based; settings: HEK293 cells stably expressing hROMK
Method: Cell Culture Conditions— HEK293 cells stably expressing hROMK (hKir1.1) were grown at 37° C. in a 10% CO2 humidified incubator in complete growth media: Dulbecco's Modified Eagle Medium supplemented with non-essential amino acids, Penicillin/Streptomycin/Glutamine, G418 and FBS. At >80% confluency, aspirate the media from the flask and rinse with 10 mL Calcium/Magnesium-free PBS. Add 5 mL of 1× trypsin (prepared in Ca/Mg Free PBS) to T-225 flask and return flask to 37° C./CO2 incubator for 2-3 minutes. To dislodge the cell, gently bang the side of the flask with your hand. Triturate the cells completely and then transfer the cells to 25 mL complete media. Centrifuge at 1,500 rpm for 6 min followed by resuspension in complete growth media and determine cell concentration. For typical re-seeding, 4E6 cells/T-225 flask will attain >80% confluency in 4 days. Under ideal growth conditions and appropriate tissue culture practices, this cell line is stable for 40-45 passages.
FluxOR Kit Components (Invitrogen F10017)
• FluxOR™ Reagent (Component A) • FluxOR™ Assay Buffer (Component B)—10× Concentrate • PowerLoad™ Concentrate (Component C)—100× Concentrate • Probenecid (Component D)—Lyophilized sample is kept at −20° C. Water soluble, 100×after solubilization in 1 mL water. Store at 4° C. • FluxOR™ Chloride-free Buffer (Component E)—5× Concentrate • Potassium sulfate (K2SO4) Concentrate (Component F)—125 mM in water. Store at 4° C. • Thallium sulfate (Tl2SO4) Concentrate (Component G)—50 mM in water. Store at 4° C. • DMSO (dimethyl sulfoxide, Component H)—1 mL (100%) Reagent Preparation: FluxOR Working Solutions • 1000× FluxOR™ Reagent: Reconstitute a vial of component A in 100 μl DMSO; Mix well; Store 10 μl aliquots at −20° C. • 1× FluxOR™ Assay Buffer: Dilute Component B 10-fold with water; Adjust pH to 7.4 with Hepes/NaOH; Filter and store at 4° C. • Probenecid/Assay Buffer: 100 mL of 1× FluxOR™ Assay Buffer; 1 mL of reconstituted component D; Store at 4° C. • Loading Buffer (per microplate): 10 μl 1000× FluxOR™ Reagent; 100 μl component C; 10 mL Probenecid/Assay Buffer • Compound Buffer (per microplate): 20 mL Probenecid/Assay Buffer; 0.3 mM ouabain (10 mM ouabain in water can be stored in amber bottle/aluminum foil at room temperature); Test compound • 1× FluxOR™ Chloride-Free Buffer: Prepare 1× working solution in water. Can be stored at room temperature • Stimulant Buffer (prepared at 5× final concentration in 1× FluxOR™ Chloride-Free Buffer): 7.5 mM Thallium sulfate and 0.75 mM Potassium sulfate (to give a final assay concentration of 3 mM Thallium 0.3 mM Potassium). Store at 4° C. when not in use. If kept sterile, this solution is good for months.
Assay Protocol—The ROMK channel functional thallium flux assay is performed in 384 wells, using the FLIPR-Tetra instrument. HEK-hKir1.1 cells are seeded in Poly-D-Lysine microplates and kept in a 37° C.-10% CO2 incubator overnight. On the day of the experiment, the growth media is replaced with the FluxOR™ reagent loading buffer and incubated, protected from light, at ambient temperature (23-25° C.) for 90 min. The loading buffer is replaced with assay buffer±test compound followed by 30 min incubation at ambient temperature, where the Thallium/Potassium stimulant is added to the microplate.
• 1. Seed HEK-hKir1.1 cells ([…] at 20,000 cells/well) in 384-well PDL coated Microplates • 2. Allow cells to adhere overnight in humidified 37° C./10% CO2 incubator • 3. Completely remove cell growth media from microplate and replace with 25 μl loading buffer • 4. Incubate Microplate at room temperature, protected form light, for 90 min • 5. Remove loading buffer and replace with 25 μl 1× Assay Buffer±test compound. • 6. Incubate microplate at room temperature, protected from light, for 30 min • 7. At FLIPR-Tetra 384: Add stimulant (Thallium/Potassium) solution to microplate and monitor fluorescence. Excitation=400 nm, Emission=460 & 580 nm. Collect data for 10 min.

Kir1.1 (ROMK1) = Kir1.1 (ROMK1) (Homo sapiens (Human), UniProt P48048); experiment: Electrophysiology Assay (whole cell voltage clamp, IonWorks Quattro); type: cell-based; settings: Chinese hamster ovary cells stably expressing Kir1.1; block during voltage step to 0 mV
Method: Block of Kir1.1 (ROMK1) currents was examined by whole cell voltage clamp (Hamill et. al. Pfluegers Archives 391:85-100 (1981)) using the IonWorks Quattro automated electrophysiology platform (Molecular Devices, Sunnyvale, Calif.). Chinese hamster ovary cells stably expressing Kir1.1 channels were maintained in T-75 flasks in cell culture media in a humidified 10% CO2 incubator at 37° C. Prior to an experiment, Kir1.1 expression was induced by overnight incubation with 1 mM sodium butyrate. On the day of the experiment, cells were dissociated with 2.5 mL of Versene (Invitrogen 15040-066) for approximately 6 min at 37° C. and suspended in 10 mL of bath solution containing (in mM): 150 NaCl, 10 KCl, 2.7 CaCl2, 0.5 MgCl2, 5 HEPES, pH 7.4. After centrifugation, the cell pellet was resuspended in approximately 4.0 mL of bath solution and placed in the IonWorks instrument. The intracellular solution consisted of (in mM): 80 K gluconate, 40 KCl, 20 KF, 3.2 MgCl2, 3 EGTA, 5 Hepes, pH 7.4. Electrical access to the cytoplasm was achieved by perforation in 0.13 mg/mL amphotericin B for 4 min. Amphotericin B (Sigma A-4888) was prepared as a 40 mg/mL solution in DMSO. Voltage protocols and current recordings were performed using the IonWorks HT software/hardware system. Currents were sampled at 1 kHz. No correction for liquid junction potentials was used. The test pulse, consisting of a 100 ms step to 0 mV from a holding potential of −70 mV, followed by a 100 ms voltage ramp from −70 mV to +70 mV, was applied before and after a 6 min compound incubation period. Test compounds were prepared by diluting DMSO stock solutions into the bath solution at 3× the final concentration and placed in the instrument in 96-well polypropylene plates. Current amplitudes were measured using the IonWorks software. To assess compound potency, the fractional block during the voltage step to 0 mV was calculated in Microsoft Excel (Microsoft, Redmond, Calif.), and dose-response curves were fitted with Igor Pro 4.0 (WaveMetrics, Lake Oswego, Oreg.). Normally, a control compound is included to support that the assay is giving consistent results compared to previous measurements, although the control is not required to obtain the results for the test compounds.

hROMK (hKir1.1), sequence (P48048 whole entry): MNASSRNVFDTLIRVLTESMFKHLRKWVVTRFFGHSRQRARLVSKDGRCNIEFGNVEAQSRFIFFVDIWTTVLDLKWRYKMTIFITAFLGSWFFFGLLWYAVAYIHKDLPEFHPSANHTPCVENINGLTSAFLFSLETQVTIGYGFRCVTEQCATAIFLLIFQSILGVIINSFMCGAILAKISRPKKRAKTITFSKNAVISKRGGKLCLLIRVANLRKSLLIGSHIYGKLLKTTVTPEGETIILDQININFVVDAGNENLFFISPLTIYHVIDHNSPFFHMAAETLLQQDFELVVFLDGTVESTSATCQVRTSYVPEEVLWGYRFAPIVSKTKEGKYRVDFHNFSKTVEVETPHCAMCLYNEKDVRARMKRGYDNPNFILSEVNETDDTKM
Kir1.1 (ROMK1), sequence (P48048 whole entry, species assumed): as the sequence (P48048 whole entry) above

Compound: O=C1C=C(N2CCC3(CCN(CC4OCCc5c4ccc4c5COC4=O)CC3)C2=O)CO1 (racemic) [Example 52]
- pIC50 (hROMK (hKir1.1)): 6.46
- pIC50 (Kir1.1 (ROMK1)): 7.22

Compound: CC1=C(N2C(=O)C3(CCN(C[C@H](O)c4ccc5c(c4C)COC5=O)CC3)CC2C)COC1=O (single isomer, unassigned) [Example 30]
- pIC50 (hROMK (hKir1.1)): 7.70
- pIC50 (Kir1.1 (ROMK1)): 7.70

Compound: CCC1CC2(CCN(C[C@H](O)c3ccc4c(c3C)COC4=O)CC2)C(=O)N1C1=CC(=O)OC1 (single isomer, unassigned) [Example 66]
- pIC50 (hROMK (hKir1.1)): 8.00
- pIC50 (Kir1.1 (ROMK1)): 7.70

Compound: Cc1c([C@@H](O)CN2CCC3(CC2)CC(C2CC2)N(C2=CC(=O)OC2)C3=O)ccc2c1COC2=O (single isomer, unassigned) [Example 69]
- pIC50 (hROMK (hKir1.1)): 7.70
- pIC50 (Kir1.1 (ROMK1)): 7.52

Compound: CCc1c(C(O)CN2CCC3(CC2)CCN(C2=C(C)C(=O)OC2)C3=O)ccc2c1COC2=O (single isomer, unassigned) [Example 75]
- pIC50 (hROMK (hKir1.1)): 7.52
- pIC50 (Kir1.1 (ROMK1)): 8.00

Compound: CC1=C(N2CCC3(CCN(CC(O)c4ccc5c(c4C4CC4)COC5=O)CC3)C2=O)COC1=O (single isomer, unassigned) [Example 76]
- pIC50 (hROMK (hKir1.1)): 8.00
- pIC50 (Kir1.1 (ROMK1)): 8.00

Compound: CC1=C(N2CCC3(CCN(CC(O)c4ccc5c(c4Cl)COC5=O)CC3)C2=O)COC1=O (single isomer, unassigned) [Example 79]
- pIC50 (hROMK (hKir1.1)): 8.00
- pIC50 (Kir1.1 (ROMK1)): 8.52

Compound: CC1=C(N2CCC3(CCN(CC(O)c4ccc5c(c4F)COC5=O)CC3)C2=O)COC1=O (single isomer, unassigned) [Example 80]
- pIC50 (hROMK (hKir1.1)): 7.30
- pIC50 (Kir1.1 (ROMK1)): 8.00

Compound: O=C1C=C(N2CCC3(CCN(CCc4ccc5c(c4)COC5=O)CC3)C2=O)CO1 [Example 3]
- pIC50 (hROMK (hKir1.1)): 6.54
- pIC50 (Kir1.1 (ROMK1)): 7.15

Compound: Cc1c([C@@H](O)CN2CCC3(CC2)CCN(C2=CC(=O)OC2)C3=O)ccc2c1COC2=O [Example 5, 8-[(2R)-2-hydroxy-2-(4-methyl-1-oxo-1,3-dihydro-2-benzofuran-5-yl)ethyl]-2-(5-oxo-2,5-dihydrofuran-3-yl)-2,8-diazaspiro[4.5]decan-1-one]
- pIC50 (hROMK (hKir1.1)): 7.52
- pIC50 (Kir1.1 (ROMK1)): 8.40

Compound: CC1=C(N2CCC3(CCN(C[C@H](O)c4ccc5c(c4C)COC5=O)CC3)C2=O)COC1=O [Example 7, 8-[(2R)-2-hydroxy-2-(4-methyl-1-oxo-1,3-dihydro-2-benzofuran-5-yl)ethyl]-2-(4-methyl-5-oxo-2,5-dihydrofuran-3-yl)-2,8-diazaspiro[4.5]decan-1-one]
- pIC50 (hROMK (hKir1.1)): 7.70
- pIC50 (Kir1.1 (ROMK1)): 8.00

Compound: CC1=C(N2CCCC3(CCN(C[C@H](O)c4ccc5c(c4C)COC5=O)CC3)C2=O)COC1=O [Example 9, 9-[(2R)-2-hydroxy-2-(4-methyl-1-oxo-1,3-dihydro-2-benzofuran-5-yl)ethyl]-2-(4-methyl-5-oxo-2,5-dihydrofuran-3-yl)-1-oxo-2-aza-9-azoniaspiro[5.5]undecane]
- pIC50 (hROMK (hKir1.1)): 8.00
- pIC50 (Kir1.1 (ROMK1)): 8.00

Compound: Cc1c([C@H](O)CN2CCC3(CC2)CCN(C2=CC(=O)OC2)C3=O)ccc2c1COC2=O [Example 21]
- pIC50 (hROMK (hKir1.1)): 6.43
- pIC50 (Kir1.1 (ROMK1)): 6.41

Compound: Cc1c([C@@H](O)CN2CCC3(CC2)CCN(C2=C(F)C(=O)OC2)C3=O)ccc2c1COC2=O [Example 22]
- pIC50 (hROMK (hKir1.1)): 7.52
- pIC50 (Kir1.1 (ROMK1)): 8.40

Compound: Cc1c([C@@H](O)CN2CCC3(CCCN(C4=CC(=O)OC4)C3=O)CC2)ccc2c1COC2=O [Example 23]
- pIC50 (hROMK (hKir1.1)): 7.70
- pIC50 (Kir1.1 (ROMK1)): 8.00

Compound: Cc1c([C@@H](O)CN2CCC3(CCCN(C4=CC(=O)OC4)C3)CC2)ccc2c1COC2=O [Example 24]
- pIC50 (hROMK (hKir1.1)): 6.62
- pIC50 (Kir1.1 (ROMK1)): 6.21

Compound: Cc1c([C@@H](O)CN2CCC3(CC2)CCN(C2=C(Cl)C(=O)OC2)C3=O)ccc2c1COC2=O [Example 25]
- pIC50 (hROMK (hKir1.1)): 8.00
- pIC50 (Kir1.1 (ROMK1)): 8.00

Compound: CC1=C(N2CCC3(CCN(CC(NC4CCC4)c4ccc5c(c4C)COC5=O)CC3)C2=O)COC1=O (centres unmarked) [Example 56]
- pIC50 (hROMK (hKir1.1)): 6.43

Compound: COCCNC(CN1CCC2(CC1)CCN(C1=C(C)C(=O)OC1)C2=O)c1ccc2c(c1C)COC2=O (centres unmarked) [Example 58]
- pIC50 (hROMK (hKir1.1)): 6.66

Compound: CC1=C(N2CCC3(CCN(CC(NCCC#N)c4ccc5c(c4C)COC5=O)CC3)C2=O)COC1=O (centres unmarked) [Example 59]
- pIC50 (hROMK (hKir1.1)): 6.68

Compound: CNC(CN1CCC2(CC1)CCN(C1=C(C)C(=O)OC1)C2=O)c1ccc2c(c1C)COC2=O (centres unmarked) [Example 60, 8-[2-(methylamino)-2-(4-methyl-1-oxo-1,3-dihydro-2-benzofuran-5-yl)ethyl]-2-(4-methyl-5-oxo-2,5-dihydrofuran-3-yl)-2,8-diazaspiro[4.5]decan-1-one]
- pIC50 (hROMK (hKir1.1)): 7.00

Compound: Cc1c([C@@H](O)CN2CCC3(CC2)C(=O)N(C2=CC(=O)OC2)c2ccccc23)ccc2c1COC2=O [Example 65, 1′-[(2R)-2-hydroxy-2-(4-methyl-1-oxo-1,3-dihydro-2-benzofuran-5-yl)ethyl]-2-oxo-1-(5-oxo-2,5-dihydrofuran-3-yl)-1,2-dihydrospiro[indole-3,4′-piperidinium]]
- pIC50 (hROMK (hKir1.1)): 7.40

Compound: CC1=C(N2C(=O)C3(CCN(C[C@H](O)c4ccc5c(c4C)COC5=O)CC3)CC2C2CC2)COC1=O (some centres unmarked) [Example 70]
- pIC50 (hROMK (hKir1.1)): 6.47

Compound: COCC1=C(N2CCC3(CCN(C[C@H](O)c4ccc5c(c4C)COC5=O)CC3)C2=O)COC1=O [Example 71]
- pIC50 (hROMK (hKir1.1)): 7.15

Compound: CC1=CC2(CCN(C[C@H](O)c3ccc4c(c3C)COC4=O)CC2)C(=O)N1C1=CC(=O)OC1 [Example 72]
- pIC50 (hROMK (hKir1.1)): 7.52

Compound: CC1=CN(C2=C(C)C(=O)OC2)C(=O)C12CCN(C[C@H](O)c1ccc3c(c1C)COC3=O)CC2 [Example 73]
- pIC50 (hROMK (hKir1.1)): 7.10

Compound: CC1=C(N2CCC3(CC4COCC(C3)N4C[C@H](O)c3ccc4c(c3C)COC4=O)C2=O)COC1=O (some centres unmarked) [Example 82]
- pIC50 (hROMK (hKir1.1)): 6.74
